Drawing on ChEMBL document CHEMBL1129171, “BMS-187257, a potent, selective, and novel heterocyclic 3 adrenergic receptor agonist” (Bioorg Med Chem Lett, 1996), this text covers Ki, IA and EC50 for seven compounds.

The target in assay [1] is T1, Beta-3 adrenergic receptor (Homo sapiens, UniProt P13945). As to the kind of experiment: Compound was tested for its binding affinity against beta3 adrenergic receptor in CHO cell membrane using [125I]iodocyanopindolol as the radioligand. It counts as cell membranes.
Target sequence in this assay (P13945 whole entry): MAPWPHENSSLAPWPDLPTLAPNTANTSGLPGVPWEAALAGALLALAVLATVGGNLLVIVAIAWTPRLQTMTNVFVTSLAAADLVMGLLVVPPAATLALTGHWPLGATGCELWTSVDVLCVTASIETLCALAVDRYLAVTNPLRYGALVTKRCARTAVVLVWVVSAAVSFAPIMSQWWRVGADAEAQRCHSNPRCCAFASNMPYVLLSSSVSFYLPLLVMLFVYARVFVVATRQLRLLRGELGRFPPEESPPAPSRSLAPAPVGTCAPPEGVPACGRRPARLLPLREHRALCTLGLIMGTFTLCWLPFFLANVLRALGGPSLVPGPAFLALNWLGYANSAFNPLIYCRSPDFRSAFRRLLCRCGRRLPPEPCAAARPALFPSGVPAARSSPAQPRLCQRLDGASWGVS
For assay [2], the target named is T1, Beta-3 adrenergic receptor. As to the kind of experiment: stimulation of adenylyl cyclase activity in CHO-beta-3 adrenergic receptor cell membrane; expressed as maximal cyclase activity as a fraction of (-)-isoproterenol (IA = 1). It counts as functional.
Target sequence in this assay (P13945 whole entry, looked up): as the sequence (P13945 whole entry) above
Assay [3] addresses T1, Beta-3 adrenergic receptor. As to the kind of experiment: Compound was tested for its ability to stimulate adenylyl cyclase activity in CHO-beta-3 adrenergic receptor cell membrane. It is filed as functional.
Target sequence in this assay (P13945 whole entry): as above
In assay [4] the target is Beta-2 adrenergic receptor (Homo sapiens, UniProt P07550). The experiment in a line: biochemical.
Description: Compound was tested for its binding affinity against beta2 adrenergic receptor in CHO cell membrane using [125I]iodocyanopindolol as the radioligand.
Assay [5] deals with Beta-1 adrenergic receptor (Homo sapiens, UniProt P08588). As to the kind of experiment: Compound was tested for its binding affinity against Beta-1 adrenergic receptor in CHO cell membrane using [125I]iodocyanopindolol as the radioligand. It counts as cell membranes.
Assay [6] concerns the target T1, Beta-3 adrenergic receptor. As to the kind of experiment: Compound was tested for its ability to stimulate adenylyl cyclase activity in CHO Beta-3 adrenergic receptor cell membrane. It is filed as functional.
Target sequence in this assay (P13945 whole entry): as above

SMILES strings stand for the structures. Active and inactive are the calls of the source. The rule behind the calls is not given here.

Beta-1 adrenergic receptor, sequence (P08588 whole entry): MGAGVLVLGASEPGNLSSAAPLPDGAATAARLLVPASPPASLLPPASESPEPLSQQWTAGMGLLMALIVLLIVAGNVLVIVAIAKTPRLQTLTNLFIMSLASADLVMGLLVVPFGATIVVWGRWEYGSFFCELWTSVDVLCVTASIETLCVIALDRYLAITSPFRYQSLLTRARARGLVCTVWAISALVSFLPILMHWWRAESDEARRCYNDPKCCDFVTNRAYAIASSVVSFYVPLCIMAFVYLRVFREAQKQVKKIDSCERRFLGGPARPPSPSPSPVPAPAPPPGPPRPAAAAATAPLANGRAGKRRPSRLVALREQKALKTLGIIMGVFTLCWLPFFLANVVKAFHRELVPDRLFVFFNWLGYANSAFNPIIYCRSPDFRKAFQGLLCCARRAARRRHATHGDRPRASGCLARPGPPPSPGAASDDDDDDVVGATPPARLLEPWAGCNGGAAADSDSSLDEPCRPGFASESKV
Beta-2 adrenergic receptor, sequence (P07550 whole entry): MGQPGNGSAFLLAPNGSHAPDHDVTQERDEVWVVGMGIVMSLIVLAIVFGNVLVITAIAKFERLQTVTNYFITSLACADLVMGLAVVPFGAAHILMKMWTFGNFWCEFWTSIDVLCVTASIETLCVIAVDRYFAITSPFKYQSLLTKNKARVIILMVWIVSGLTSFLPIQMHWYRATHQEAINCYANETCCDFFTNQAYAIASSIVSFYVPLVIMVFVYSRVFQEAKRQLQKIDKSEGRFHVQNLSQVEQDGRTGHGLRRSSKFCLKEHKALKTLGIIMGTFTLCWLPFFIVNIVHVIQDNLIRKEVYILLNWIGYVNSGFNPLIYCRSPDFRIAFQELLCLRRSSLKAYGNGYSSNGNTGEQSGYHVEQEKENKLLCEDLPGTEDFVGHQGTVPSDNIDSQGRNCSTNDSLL

In assay [1], `O=C(O)COc1ccc(OCCNC[C@H](O)COc2ccccc2)cc1` yielded an inhibition constant Ki of 520 nM. Further, in assay [2], the IA came out at 0.71. The same compound yielded a concentration for a half-maximal effect (EC50) in assay [3] of 550 nM.
In turn, `C[C@H](Cc1ccc(OCC(=O)O)cc1)NC[C@H](O)c1cccc(Cl)c1` displayed an IA in assay [2] of 0.67.
On to `C[C@H](Cc1ncc(CCC(=O)O)s1)NCC(O)c1cccc(Cl)c1` (stereo partly specified), for which the figures for the inhibitory constant (Ki) in assay [1], in assay [4] and in assay [5] were 146000 nM, 11400 nM and 58100 nM, respectively. For the same compound, the IA in assay [2] is 0.39. Further, in assay [6], the EC50 came out at 27600 nM.
Turning to `C[C@H](Cc1ncc(CCCC(=O)O)s1)NC[C@H](O)COc1ccccc1`, the inhibitory constant (Ki) in assay [1] was determined as 760 nM; in assay [4] it was 1600 nM; in assay [5], 1300 nM. The compound further returned an IA in assay [2] of 0.72. The same compound returned a concentration giving a half-maximal response (EC50) in assay [6] of 630 nM.
Consider `C[C@H](Cc1ncc(CCCCC(=O)O)s1)NC[C@H](O)COc1ccccc1`, for which the inhibition constant Ki in assay [1] amounted to 390 nM; in assay [4], 150 nM; in assay [5] it was 440 nM. The IA result in assay [2] is “inactive”.
Regarding `C[C@H](Cc1ncc(CCCC(=O)O)s1)NCC(O)c1cccc(Cl)c1` (stereo partly specified), the values for the inhibitory constant (Ki) in assay [1], in assay [4] and in assay [5] were 36500 nM, 13900 nM and 6400 nM, respectively.
Consider `C[C@H](Cc1ncc(CCC(=O)O)s1)NC[C@H](O)COc1ccccc1`, for which the Ki in assay [1] turned out to be 3530 nM; in assay [4] it was 1230 nM; in assay [5], 3440 nM. In assay [2], the IA came out at 0.56. It took 2760 nM to reach a half-maximal effect in assay [6] (EC50).

In general, Ki refers to the equilibrium dissociation constant of an inhibitor or competing ligand from its target. Lower therefore signals higher affinity. In general, EC50 refers to the concentration at which the effect is half-maximal. Low readings indicate a more potent agent, high ones a less potent agent.
